According to patent US6352958B1, “Cycloimido-substituted benzofused heterocyclic herbicides” (FMC Corporation, priority 1997, dated 2002):

Tests used:
Assay type in all cases: in vivo
[1] = system: soybean (Glycine max var. Winchester); experiment: Preemergence herbicidal activity, soybean; conditions: Rate of Application 0.3 Kg/Ha, examined after 12-17 days
[2] = system: wheat (Triticum aestivum var. Lew); experiment: Preemergence herbicidal activity, wheat; conditions: Rate of Application 0.3 Kg/Ha, examined after 12-17 days
[3] = system: field corn (Zea mays var. Pioneer 3732); experiment: Preemergence herbicidal activity, corn; conditions: Rate of Application 0.3 Kg/Ha, examined after 12-17 days
[4] = system: velvetleaf (Abutilon theophrasti); experiment: Preemergence herbicidal activity, velvetleaf; conditions: Rate of Application 0.3 Kg/Ha, examined after 12-17 days
[5] = system: morningglory (Ipomea lacunosa or Ipomea hederacea); experiment: Preemergence herbicidal activity, morningglory; conditions: Rate of Application 0.3 Kg/Ha, examined after 12-17 days
[6] = system: common chickweed (Stellaria media); experiment: Preemergence herbicidal activity, chickweed; conditions: Rate of Application 0.3 Kg/Ha, examined after 12-17 days
[7] = system: common cocklebur (Xanthium strumarium L.); experiment: Preemergence herbicidal activity, cocklebur; conditions: Rate of Application 0.3 Kg/Ha, examined after 12-17 days
[8] = system: blackgrass (Aloepecurus myosuroides); experiment: Preemergence herbicidal activity, blackgrass; conditions: Rate of Application 0.3 Kg/Ha, examined after 12-17 days
[9] = system: green foxtail (Setaria viridis); experiment: Preemergence herbicidal activity, green foxtail; conditions: Rate of Application 0.3 Kg/Ha, examined after 12-17 days
[10] = system: Johnsongrass (Sorghum halepense); experiment: Preemergence herbicidal activity, johnsongrass; conditions: Rate of Application 0.3 Kg/Ha, examined after 12-17 days
[11] = system: soybean (Glycine max var. Winchester); experiment: Postemergence herbicidal activity, soybean; conditions: rate of application 0.3 Kg/Ha, rated after 12-17 days
[12] = system: wheat (Triticum aestivum var. Lew); experiment: Postemergence herbicidal activity, wheat; conditions: rate of application 0.3 Kg/Ha, rated after 12-17 days
[13] = system: field corn (Zea mays var. Pioneer 3732); experiment: Postemergence herbicidal activity, corn; conditions: rate of application 0.3 Kg/Ha, rated after 12-17 days
[14] = system: velvetleaf (Abutilon theophrasti); experiment: Postemergence herbicidal activity, velvetleaf; conditions: rate of application 0.3 Kg/Ha, rated after 12-17 days
[15] = system: morningglory (Ipomea lacunosa or Ipomea hederacea); experiment: Postemergence herbicidal activity, morningglory; conditions: rate of application 0.3 Kg/Ha, rated after 12-17 days
[16] = system: common chickweed (Stellaria media); experiment: Postemergence herbicidal activity, chickweed; conditions: rate of application 0.3 Kg/Ha, rated after 12-17 days
[17] = system: common cocklebur (Xanthium strumarium L.); experiment: Postemergence herbicidal activity, cocklebur; conditions: rate of application 0.3 Kg/Ha, rated after 12-17 days
[18] = system: blackgrass (Aloepecurus myosuroides); experiment: Postemergence herbicidal activity, blackgrass; conditions: rate of application 0.3 Kg/Ha, rated after 12-17 days
[19] = system: green foxtail (Setaria viridis); experiment: Postemergence herbicidal activity, green foxtail; conditions: rate of application 0.3 Kg/Ha, rated after 12-17 days
[20] = system: Johnsongrass (Sorghum halepense); experiment: Postemergence herbicidal activity, johnsongrass; conditions: rate of application 0.3 Kg/Ha, rated after 12-17 days

Structure (SMILES) | PREEMERGENCE HERBICIDAL ACTIVITY (% CONTROL) SOY [1] [%] | PREEMERGENCE HERBICIDAL ACTIVITY (% CONTROL) WHT [2] [%] | PREEMERGENCE HERBICIDAL ACTIVITY (% CONTROL) CRN [3] [%] | PREEMERGENCE HERBICIDAL ACTIVITY (% CONTROL) ABUTH [4] [%] | PREEMERGENCE HERBICIDAL ACTIVITY (% CONTROL) IPOSS [5] [%] | PREEMERGENCE HERBICIDAL ACTIVITY (% CONTROL) STEME [6] [%] | PREEMERGENCE HERBICIDAL ACTIVITY (% CONTROL) XANPE [7] [%] | PREEMERGENCE HERBICIDAL ACTIVITY (% CONTROL) ALOMY [8] [%] | PREEMERGENCE HERBICIDAL ACTIVITY (% CONTROL) SETVI [9] [%] | PREEMERGENCE HERBICIDAL ACTIVITY (% CONTROL) SORHA [10] [%] | Postemergence herbicidal activity (% control) SOY [11] [%] | Postemergence herbicidal activity (% control) WHT [12] [%] | Postemergence herbicidal activity (% control) CRN [13] [%] | Postemergence herbicidal activity (% control) ABUTH [14] [%] | Postemergence herbicidal activity (% control) IPOSS [15] [%] | Postemergence herbicidal activity (% control) STEME [16] [%] | Postemergence herbicidal activity (% control) XANPE [17] [%] | Postemergence herbicidal activity (% control) ALOMY [18] [%] | Postemergence herbicidal activity (% control) SETVI [19] [%] | Postemergence herbicidal activity (% control) SORHA [20] [%]
CC(Cl)c1cc2c(Cl)cc(F)c(-n3c(=O)cc(C(F)(F)F)n(C)c3=O)c2o1 (stereo not drawn) [Compound 234] | 100 | 100 | 100 | 100 | 100 | 100 | 100 | 80 | 100 | 100 | 100 | 100 | 100 | 100 | 100 | 100 | 100 | 100 | 100 | 100
Cn1c(C(F)(F)F)cc(=O)n(-c2c(F)cc(Cl)c3cc(CCC(=O)O)oc23)c1=O [Compound 262] | 90 | 40 | 40 | 100 | 100 | 100 | 100 | 50 | 100 | 70 | 95 | 60 | 80 | 100 | 100 | 95 | 95 | 50 | 100 | 80
CCOC(=O)CCc1nc2c(-n3c(=O)cc(C(F)(F)F)n(C)c3=O)c(F)cc(Cl)c2[nH]1 [Compound 372] | 100 | 90 | 95 | 100 | 100 | 100 | 100 | 80 | 100 | 80 | 100 | 100 | 100 | 100 | 100 | 100 | 100 | 100 | 100 | 100
